# Reference: US5140025A, “Thienotricylene for the treatment of bronchial diseases” (BYK Gulden Lomberg Chemische Fabrik GmbH, priority 1987, dated 1992)
# Columns and labels:
# [1] = system: acetylcholine-induced bronchospasm; assay: Acetylcholine-induced bronchospasm in anaesthetised, spontaneously breathing guinea pigs, intravenous administration; assay type: in vivo, guinea pig (Pirbright White); conditions: for Mean bronchospasmolytic activity, percentage increase of Vmaxe vs control spasm / Mean bronchospasmolytic activity, percentage increase of tidal volume (TV) vs control spasm: 0-60 min; for Mean bronchospasmolytic activity, percentage increase of Vmaxe vs control spasm / Mean bronchospasmolytic activity, percentage increase of tidal volume (TV) vs control spasm / Bronchospasmolytic activity, percentage increase of Vmaxe vs control spasm / Bronchospasmolytic activity, percentage increase of tidal volume (TV) vs control spasm: x±SEM, N=10; for Bronchospasmolytic activity, percentage increase of Vmaxe vs control spasm / Bronchospasmolytic activity, percentage increase of tidal volume (TV) vs control spasm: at 60 min
# Excerpt: Effect of Intravenously Administered Telenzepine on Acetylchline-Induced Bronchospasms in Anaesthetised, Spontaneously Breathing Guinea Pigs
# Method for simultaneously recording pharmacodynamic or toxic effects on interior sensitive receptors and the respiration of guinea pigs (U. Kilian, E. Muller, E. Ch. Dittmann and J. Hamacher, Arzneim.-Forsch. 28, 1699-1708, 1978).
# Pirbright White, Interfauna (Tuttlingen), 350-450 g, male.
# Ethylurethane 1.2 g/kg i.p. as 12.5% aqueous solution.
# Pneumotachogram: Maximum flow velocities of the respiratory air during expiration (Vmaxe, "peak flow"), tidal volume (TV).
# Acetylcholine as spasmogen, 0.2-0.3 μmol/kg i.v., dissolved in 0.9% NaCl.
# -10 min control spasm, 0 min administration of substance, +2, +10, +20, +30, +60 min test spasms.
# Determination of the effect of telenzepine on the parameters (mean and standard error of mean, n=10) and calculation of the bronchospasmolytic activity from this as percentage inhibition of the acetylcholine-induced decrease of Vmaxe and TV by means of time/effect curves. Computation of a dose/response curve of the mean bronchospasmolytic activity during the observation time (0-60 min) from the areas under the time/effect curves and reading of 1 h ED50 values. Determination of a dose/response curve of the bronchospasmolytic activity at time 60 min and reading ED50 values.
# M2 receptor (cardiac) = target: T1, M2 receptor (cardiac) (Rattus norvegicus, UniProt P10980); assay: Receptor affinity, electrically stimulated left atrium of the rat; conditions: agonist carbachol, Schild slope normalised to 1.00, read-out: pA2 ± SEM, M2 receptor (cardiac) (converted)
# T1 construct: isolated, left atria of rats (male 250-350 g); from tissue; host or cells: rat left atrium (isolated, male rats 250-350 g)
# T1 sequence (P10980 1-466): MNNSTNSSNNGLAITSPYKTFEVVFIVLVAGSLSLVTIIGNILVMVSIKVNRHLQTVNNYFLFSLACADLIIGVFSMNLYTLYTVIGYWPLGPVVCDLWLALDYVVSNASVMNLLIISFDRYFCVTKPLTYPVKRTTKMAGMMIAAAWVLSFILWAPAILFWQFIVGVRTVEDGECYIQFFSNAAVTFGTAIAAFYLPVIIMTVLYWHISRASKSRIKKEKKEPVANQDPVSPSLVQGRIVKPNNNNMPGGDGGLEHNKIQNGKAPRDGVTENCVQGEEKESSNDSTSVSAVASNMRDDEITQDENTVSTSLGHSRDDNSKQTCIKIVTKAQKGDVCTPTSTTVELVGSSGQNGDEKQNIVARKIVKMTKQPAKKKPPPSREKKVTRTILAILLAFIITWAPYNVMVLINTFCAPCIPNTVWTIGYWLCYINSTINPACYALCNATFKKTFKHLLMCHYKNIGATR
# Excerpt: The affinity of (±)-4,9-dihydro-3-methyl-4-[(4-methyl-1-piperazinyl)-acetyl]-10H-thieno[3,4-b][1,5]benzodiazepin-10-one (telenzepine, compound 2 in Table 7) and its conformers [(+)-enantiomer=compound 1, (-)-enantiomer=compound 3] to muscarinic M1 (ganglionic type) and M2 (cardiac type) receptors was investigated by the following methods:
# Electrically Stimulated Left Atrium of the Rat (Eltze et al., 1985, Europ. J. Pharmacol. 112, 211-224).
# Isometric contractions (HSE force transducer, K-30; Watanabe Linear Corder Mark 5) of isolated, left atria of rats (male 250-350 g) were recorded in an organ bath (10 ml, Tyrode nutrient solution, 31° C., gassing with carbogen, initial tension of the organs 0.25 g) under electrical stimulation (HSE stimulator; hook-shaped Pt electrodes at the base of the bath and immersed, annular Pt electrodes 1 cm below the water surface of the bath; 7 V, 3 ms, 2 Hz). After an equilibration time of 30 minutes, cumulative dose/response curves of carbachol (10^-8 -10^-6 M, in the presence of the antagonist also up to 10^-5 or 10^-4 M) were recorded simultaneously on 4 organs in each case by the technique described by van Rossum (1963). The substance to be tested was added to the organ baths 20 minutes before application of the carbachol. The pauses between the individual dose/response curves were 30-45 minutes.
# The Tyrode nutrient solution used had the following composition (mM): NaCl 130, KCl 2.0, CaCl2 ·2H2 O 1.8, MgCl2 ·6H2 O 0.98, NaHCO3 12.0, NaH2 PO4 0.42 and glucose monohydrate 5.6. pA2 values (-log of the molar dissociation constants of the competitive antagonist-receptor complex) were determined by linear regression using the Schild plot: pA2 =-log [B/(x-1)], (Arunlakshana and Schild, 1959).
# Table 7 below gives pA2 values of the substances, for which the slope of the regression lines for theoretically competitive antagonism have been normalised to 1.00 (Tallarida et al., 1979).
# [2] = system: modified Shay rat (lesion formation and acid secretion); assay: Antiulcerogenic and secretion-inhibiting action on the modified Shay rat; assay type: in vivo
# Excerpt: The excellent gastric protective action and the gastric secretion-inhibiting action of the compound (+)-4,9-dihydro-3-methyl-4-[(4-methyl-1-piperazinyl)-acetyl]-10H-thieno[3,4-b][1,5]benzodiazepin-10-one (=compound 1 in Table 8 below) in comparison with the corresponding (-)-enantiomer (=compound 3) and with the racemate (=compound 2) can be detected in studies on the modified Shay rat. The effect of the stated compounds after intravenous (i.v.) administration on the formation of lesions and the acid secretion in the modified Shay rat is shown in Table 8 below.
# Ulcers are provoked in rats (female, 180-200 g, 4 animals per cage on high grids) which have fasted for 24 hours, by pylorus ligature (under diethyl ether anaesthesia) and oral administration of 100 mg/10 ml/kg of acetylsalicylic acid. The substances to be tested are administered intravenously (1 ml/kg) directly after the pylorus ligature. The wound is closed by means of Michel clamps. 4 hours afterwards, the animals are sacrificed under anaesthesia with ether by Atlas dislocation, and resection of the stomach.
# The stomach is opened along the greater curvature and clamped to a cork sheet, the amount of secreted gastric juice (volume) is determined first and its HCl content (titration with sodium hydroxide solution) being determined subsequently. The number and size (=diameter) of ulcers present are determined using a stereomicroscope, under 10×magnification. The product of severity (according to the following point scale) and number of ulcers serves as an individual lesion index.
# The reduction in the means lesion index of each treated group compared with the control group (=100%) serves as a measure of the antiulcerogenic effect. The ED50 is the dose which reduces the mean lesion index or the HCl secretion by 50% compared with the control.
# M1 receptor (ganglionic) = assay: Receptor affinity, electrically stimulated rabbit vas deferens in organ bath; conditions: vas deferens of the rabbit, agonist McN-A-343, Schild slope normalised to 1.00; listed as Compound 1
# Procedure: Isometric contractions (HSE force transducer, K-30; tilt and zones, BD-9 chart recorder) of isolated seminal duct sections of rabbits (male, white New Zealand rabbits, 2.5-3.5 kg) were recorded in an organ bath (10 ml, 31° C., gassing with carbogen, initial tension of the organs 0.75 g) under electrical stimultion (HSE stimulator; hook-shaped Pt electrode 1 cm below the water surface of the bath; 30 V, 0.5 ms, 0.05 Hz). After an equilibration time of 30 minutes, cumulative dose/response curves of McN-A-343 (10^-7 -2×10^-6 M) were recorded simultaneously on 8 organ sections in each case (control curves), using the technique described by van Rossum (1963). After 3 control curves, a fixed concentration of the agonist (for example 5×10^-7, 10^-6, 3×10^-6, 10^-5 or 3×10^-5 M) per organ section was applied and, after stabilisation of the effect, increasing concentrations of the agonist to be tested were added. The nutrient solution used had the following composition (mM): NaCl 118, KCl 4.7, CaCl2 ·2H2 O 2.5, MgSO4 ·7H2 O 0.6, KH2 PO 4 1.2, NaHCO3 25.0 and glucose 11.1. In order to block α2 -adrenoreceptors, the nutrient solution additionally contained 10^-6 M yohimbine.
# [3] = at time 60 min after administration, 60 min
# [4] = modified Shay rat, i.v., interpolated dose, 4 h, N=24, listed as 1, 240 min
structure (smiles),measurement,setting,value
"Cc1scc2c1N(C(=O)CN1CCN(C)CC1)c1ccccc1NC2=O [(+)-telenzepine, (+)-4,9-dihydro-3-methyl-4-[(4-methyl-1-piperazinyl)-acetyl]-10H-thieno[3,4-b][1,5]benzodiazepin-10-one]","Mean bronchospasmolytic activity, percentage increase of Vmaxe vs control spasm",[1]; 0.03 μmol/kg i.v.,13 ± 4%
same,"Mean bronchospasmolytic activity, percentage increase of tidal volume (TV) vs control spasm",[1]; 0.03 μmol/kg i.v.,17 ± 4%
same,"Mean bronchospasmolytic activity, percentage increase of Vmaxe vs control spasm",[1]; 0.05 μmol/kg i.v.,21 ± 4%
same,"Mean bronchospasmolytic activity, percentage increase of tidal volume (TV) vs control spasm",[1]; 0.05 μmol/kg i.v.,25 ± 5%
same,"Mean bronchospasmolytic activity, percentage increase of Vmaxe vs control spasm",[1]; 0.1 μmol/kg i.v.,57 ± 5%
same,"Mean bronchospasmolytic activity, percentage increase of tidal volume (TV) vs control spasm",[1]; 0.1 μmol/kg i.v.,62 ± 5%
same,"Mean bronchospasmolytic activity, percentage increase of Vmaxe vs control spasm",[1]; 0.5 μmol/kg i.v.,87 ± 3%
same,"Mean bronchospasmolytic activity, percentage increase of tidal volume (TV) vs control spasm",[1]; 0.5 μmol/kg i.v.,92 ± 3%
same,"Mean bronchospasmolytic activity, percentage increase of Vmaxe vs control spasm",[1]; 1 μmol/kg i.v.,82 ± 3%
same,"Mean bronchospasmolytic activity, percentage increase of tidal volume (TV) vs control spasm",[1]; 1 μmol/kg i.v.,85 ± 3%
same,"Bronchospasmolytic activity, percentage increase of Vmaxe vs control spasm",[1]; 0.03 μmol/kg i.v.,19 ± 6%
same,"Bronchospasmolytic activity, percentage increase of tidal volume (TV) vs control spasm",[1]; 0.03 μmol/kg i.v.,23 ± 7%
same,"Bronchospasmolytic activity, percentage increase of Vmaxe vs control spasm",[1]; 0.05 μmol/kg i.v.,35 ± 7%
same,"Bronchospasmolytic activity, percentage increase of tidal volume (TV) vs control spasm",[1]; 0.05 μmol/kg i.v.,39 ± 7%
same,"Bronchospasmolytic activity, percentage increase of Vmaxe vs control spasm",[1]; 0.1 μmol/kg i.v.,61 ± 6%
same,"Bronchospasmolytic activity, percentage increase of tidal volume (TV) vs control spasm",[1]; 0.1 μmol/kg i.v.,64 ± 7%
same,"Bronchospasmolytic activity, percentage increase of Vmaxe vs control spasm",[1]; 0.5 μmol/kg i.v.,95 ± 4%
same,"Bronchospasmolytic activity, percentage increase of tidal volume (TV) vs control spasm",[1]; 0.5 μmol/kg i.v.,100 ± 4%
same,"Bronchospasmolytic activity, percentage increase of Vmaxe vs control spasm",[1]; 1 μmol/kg i.v.,88 ± 4%
same,"Bronchospasmolytic activity, percentage increase of tidal volume (TV) vs control spasm",[1]; 1 μmol/kg i.v.,88 ± 4%
same,"ED50 of bronchospasmolytic activity, TV",[1]; [3],0.07 μmol/kg i.v.
same,"ED50 of bronchospasmolytic activity, Vmaxe",[1]; [3],0.07 μmol/kg i.v.
same,dose range of dose- and time-dependent inhibition of acetylcholine-induced bronchospasm,[1]; i.v.,0.03-1 μmol/kg i.v.
same,persistence of maximum effect,"[1]; i.v., observation period",≥ 1 h
same,"ED50 of mean bronchospasmolytic activity, TV","[1]; mean activity 0-60 min, 60 min",0.08 μmol/kg i.v.
same,"ED50 of mean bronchospasmolytic activity, Vmaxe","[1]; mean activity 0-60 min, 60 min",0.1 μmol/kg i.v.
same,Kb,M2 receptor (cardiac),21.4 nM
same,"Gastric protective action, reduction of lesion index, about ED50",[2]; [4],~0.01 mg/kg i.v.
same,"Inhibition of acid secretion, reduction of HCl secretion, about ED50",[2]; [4],~0.085 mg/kg i.v.
same,"protective action with respect to stomach and intestine, doses compared with acid secretion-inhibiting doses",[2]; warm-blooded animals,observed with the administration of doses which are below the doses which inhibit acid secretion
same,"pA2 ± SEM, M1 receptor (ganglionic)",M1 receptor (ganglionic),9.12 ± 0.08
